Data reported in patent US9427442B2, “Fluoroalkyl and fluorocycloalkyl 1,4-benzodiazepinone compounds” (BRISTOL-MYERS SQUIBB COMPANY, priority 2012, dated 2016).

Tests used:
human Notch 1 = test: Notch-CBF1 Transactivation Assay (Notch 1); assay type: cell-based; settings: read-out: Notch 1 (IC50); HeLa cells transfected with truncated Notch 1 and CBF1 luciferase reporter; 18 hours; average of N experiments
Source text: (§1) Notch-CBF1 Transactivation Assay
(§2) The Notch-CBF1 (C-promoter binding factor I) cell based transactivation assay is based on the ability of the released Notch intracellular domain fragments (NICDs) to function as transcription factors in conjunction with CBF1 and other nuclear factors. Luciferase assays were used to measure the antagonism of Notch-CBF1 transcriptional activity. HeLa cervical cancer cells are transiently co-transfected with pCDNA3.1/Hygro plasmids containing truncated Notch 1, Notch 2, Notch 3, or Notch 4 receptors and a PGL3 luciferase reporter vector containing 4 copies of CBF1 binding site. The cells were then tested for Notch-CBF1 activity in the absence or presence of test compounds. HeLa cells, maintained in DMEM (high glucose with HEPES), 1× glutamine/penicillin/streptomycin and 10% Fetal Bovine serum, were transiently transfected in a T175 Flask (4.5×10^6 cells/flask) using the Monster Transfection Kit (Minis #MIR2906) according to manufacturers specifications. Table 5 denotes respective DNA quantity for the transfections.
(§3) Assay media (5 μL) containing test compounds in final concentrations ranging from 5 μM to 8.4×10^−5 μM (3 fold serial dilutions) were added to the cells and the cell plates were then incubated for 18 hours at 37° C. and 5% CO2. Control wells contained DMSO vehicle (total counts) or 0.5 μM of an in-house small molecule inhibitor (background counts). Duplicates were used for each sample. Luciferase activity was measured after a 20-minute incubation with 50 μl STEADY-GLO® luciferase reagents according to manufacturer's specifications (Promega, Cat. #E2550) and analyzed by Envision plate reader (PerkinElmer, Boston, Mass.).
(§4) The antagonist effect of compounds was expressed as 100×[1−(average sample−average background)/(average total−average background)] where sample is the luciferase activity in the presence of test compound, background is equal to the luciferase activity in the presence of the small molecule inhibitor control and the total is signal induced in DMSO wells.

human Notch 3 = test: Notch-CBF1 Transactivation Assay (Notch 3); assay type: cell-based; settings: read-out: Notch 3 (IC50); HeLa cells transfected with truncated Notch 3 and CBF1 luciferase reporter; 18 hours; average of N experiments
Source text: as §1, §2, §3, §4

[1] = Human metabolic stability half-life assay; assay type: in vitro ADME; settings: human liver microsomes, NADPH, 0.5 μM compound, 45-minute time course; for half-life at 0.5 µM: pH 7.4, read-out: HLM (t1/2, min)
Source text: Metabolic Stability Half-Life Panel

SMILES	IC50 (human Notch 1)	IC50 (human Notch 3)	half-life at 0.5 µM [1]	HLM (t1/2, min) [1]
NC(=O)[C@@H](C1CCC(F)(F)CC1)[C@@H](CCC(F)(F)F)C(=O)N[C@H]1N=C(c2cccc(F)c2)c2cccc(OC3CC3)c2NC1=O [Example 3, (2R,3S)—N-((3S)-9-(Cyclopropyloxy)-5-(3-fluorophenyl)-2-oxo-2,3-dihydro-1H-1,4-benzodiazepin-3-yl)-3-(4,4-difluorocyclohexyl)-2-(3,3,3-trifluoropropyl)succinamide]	4.2 nM	8.9 nM	80 min	
C=CC[C@H](C(N)=O)[C@@H](CC(C)C)C(=O)N[C@H]1N=C(c2ccccc2)c2cc(Cl)ccc2N(C)C1=O [Comparative Compound 27, reference compound]				6 min
Cc1cccc(C2=N[C@H](NC(=O)[C@H](CCC(F)(F)F)[C@H](CC3CC(F)(F)C3)C(N)=O)C(=O)Nc3c(Cl)cccc32)c1 [Example 10, (2R,3S)—N-((3S)-9-Chloro-5-(3-methylphenyl)-2-oxo-2,3-dihydro-1H-1,4-benzodiazepin-3-yl)-3-((3,3-difluorocyclobutyl)methyl)-2-(3,3,3-trifluoropropyl)succinamide]	1.7 nM	4.4 nM	69 min	
NC(=O)[C@@H](C1CCC(F)(F)CC1)[C@@H](CCC(F)(F)F)C(=O)N[C@H]1N=C(c2ccccc2)c2cccc(Cl)c2NC1=O [Example 5, (2R,3S)—N-((3S)-9-Chloro-2-oxo-5-phenyl-2,3-dihydro-1H-1,4-benzodiazepin-3-yl)-3-(4,4-difluorocyclohexyl)-2-(3,3,3-trifluoropropyl)succinamide]	4.4 nM	7.3 nM	72 min	
COc1cccc2c1NC(=O)[C@@H](NC(=O)[C@H](CCC(F)(F)F)[C@H](CC1CC(F)(F)C1)C(N)=O)N=C2c1ccccc1 [Example 8, (2R,3S)-3-((3,3-Difluorocyclobutyl)methyl)-N-((3S)-9-methoxy-2-oxo-5-phenyl-2,3-dihydro-1H-1,4-benzodiazepin-3-yl)-2-(3,3,3-trifluoropropyl)succinamide]	2.9 nM	4 nM	58 min	
NC(=O)[C@@H](CC1CC(F)(F)C1)[C@@H](CCC(F)(F)F)C(=O)N[C@H]1N=C(c2ccccc2)c2ccccc2NC1=O [Example 15, (2R,3S)-3-((3,3-Difluorocyclobutyl)methyl)-N-((3S)-2-oxo-5-phenyl-2,3-dihydro-1H-1,4-benzodiazepin-3-yl)-2-(3,3,3-trifluoropropyl)succinamide]	4.4 nM	3.8 nM	35 min	
CC(F)(F)C[C@H](C(N)=O)[C@@H](CCC(F)(F)F)C(=O)N[C@H]1N=C(c2ccccc2)c2ccccc2NC1=O [Example 18, (2R,3S)-3-(2,2-Difluoropropyl)-N-((3S)-2-oxo-5-phenyl-2,3-dihydro-1H-1,4-benzodiazepin-3-yl)-2-(3,3,3-trifluoropropyl)succinamide]	2.7 nM	10.8 nM	> 120 min	
C=CC[C@H](C(N)=O)[C@@H](CC(C)C)C(=O)N[C@H]1N=C(c2ccccc2)c2ccccc2N(CCC)C1=O [Comparative Compound 29, reference compound]				3 min
NC(=O)[C@@H](C1CCC(C(F)(F)F)CC1)[C@@H](CCC(F)(F)F)C(=O)N[C@H]1N=C(c2ccccc2)c2cccc(Cl)c2NC1=O (stereo partly drawn) [Example 4, (2R,3S)—N-((3S)-9-Chloro-2-oxo-5-phenyl-2,3-dihydro-1H-1,4-benzodiazepin-3-yl)-3-(4-(trifluoromethyl)cyclohexyl)-2-(3,3,3-trifluoropropyl)succinamide]	11.9 nM	21.2 nM	> 120 min	
COc1cccc2c1NC(=O)[C@@H](NC(=O)[C@H](CCC(F)(F)F)[C@@H](C(N)=O)C1CCC(F)(F)CC1)N=C2c1ccccc1 [Example 2, (2R,3S)-3-(4,4-Difluorocyclohexyl)-N-((3S)-9-methoxy-2-oxo-5-phenyl-2,3-dihydro-1H-1,4-benzodiazepin-3-yl)-2-(3,3,3-trifluoropropyl)succinamide]	7 nM	6 nM	43 min	
C[C@H](C[C@H](C(N)=O)[C@@H](CCC(F)(F)F)C(=O)N[C@H]1N=C(c2ccccc2)c2cccc(Cl)c2NC1=O)C(F)(F)F [Example 22, (2R,3S)—N-((3S)-9-Chloro-2-oxo-5-phenyl-2,3-dihydro-1H-1,4-benzodiazepin-3-yl)-3-((2R)-3,3,3-trifluoro-2-methylpropyl)-2-(3,3,3-trifluoropropyl)succinamide]	3.2 nM	9.3 nM	117 min	
Cc1cccc2c1NC(=O)[C@@H](NC(=O)[C@H](CCC(F)(F)F)[C@H](CC1CC(F)(F)C1)C(N)=O)N=C2c1cccc(F)c1 [Example 9, (2R,3S)-3-((3,3-Difluorocyclobutyl)methyl)-N-((3S)-5-(3-fluorophenyl)-9-methyl-2-oxo-2,3-dihydro-1H-1,4-benzodiazepin-3-yl)-2-(3,3,3-trifluoropropyl)succinamide]	3.5 nM	3.2 nM	91 min	
NC(=O)[C@@H](C1CC(F)(F)C1)[C@@H](CCC(F)(F)F)C(=O)N[C@H]1N=C(c2ccccc2)c2ccccc2NC1=O [Example 6]	14 nM	18.9 nM	> 120 min	
CCC[C@H](C(N)=O)[C@@H](CC(C)C)C(=O)N[C@H]1N=C(c2ccccc2)c2ccccc2N(C)C1=O [Comparative Compound 26, reference compound]				8 min
NC(=O)[C@@H](CC1CC(F)(F)C1)[C@@H](CCC(F)(F)F)C(=O)N[C@H]1N=C(c2ccccc2)c2cccc(F)c2NC1=O [Example 14, (2R,3S)-3-((3,3-Difluorocyclobutyl)methyl)-N-((3S)-9-fluoro-2-oxo-5-phenyl-2,3-dihydro-1H-1,4-benzodiazepin-3-yl)-2-(3,3,3-trifluoropropyl)succinamide]	4.5 nM	1.4 nM	> 120 min	
Cc1cccc(C2=N[C@H](NC(=O)[C@H](CCC(F)(F)F)[C@H](CC3CC(F)(F)C3)C(N)=O)C(=O)Nc3c(F)cccc32)c1 [Example 11, (2R,3S)-3-((3,3-Difluorocyclobutyl)methyl)-N-((3S)-9-fluoro-5-(3-methylphenyl)-2-oxo-2,3-dihydro-1H-1,4-benzodiazepin-3-yl)-2-(3,3,3-trifluoropropyl)succinamide]	2.1 nM	2.2 nM	46 min	
NC(=O)[C@@H](CC1CC(F)(F)C1)[C@@H](CCC(F)(F)F)C(=O)N[C@H]1N=C(c2ccccc2)c2cccc(Cl)c2NC1=O [Example 13, (2R,3S)—N-((3S)-9-Chloro-2-oxo-5-phenyl-2,3-dihydro-1H-1,4-benzodiazepin-3-yl)-3-((3,3-difluorocyclobutyl)methyl)-2-(3,3,3-trifluoropropyl)succinamide]	2.8 nM	2.4 nM	> 120 min	
CCCC[C@H](C(N)=O)[C@@H](CC(C)C)C(=O)N[C@H]1N=C(c2ccc(Cl)cc2)c2ccccc2N(C)C1=O [Comparative Compound 28, reference compound]				6 min
